Among the data in ChEMBL document CHEMBL3580558, “Salternamides A-D from a Halophilic Streptomyces sp. Actinobacterium” (J Nat Prod, 2015) are IC50 values, retold here.

pIC50: −log10 of the molar value.

The test system of one experiment is MDA-MB-231. Nature of the experiment: Antiproliferative activity against human MDA-MB-231 cells after 3 days by sulforhodamine B assay. Conditions: MDA-MB-231, 72 h; call rule not given here. The experiment is classed as functional, cell-based. (Sulforhodamine B stains cellular protein and so reports cell mass.)
The nature of experiment [1]: Antiproliferative activity against human SNU638 cells after 3 days by sulforhodamine B assay. The following applies: SNU-638, 72 h. In kind it is functional, cell-based.
Experiment [2] is described as follows: Antiproliferative activity against human SKHEP1 cells after 3 days by sulforhodamine B assay. In kind it is functional, cell-based. The following applies: SK-HEP1, 72 h.
A further experiment has as its system K562. Nature of the experiment: Antiproliferative activity against human K562 cells after 3 days by sulforhodamine B assay. The following applies: K562, 72 h. The experiment is classed as functional, cell-based.
Another experiment relates to A549. Nature of the experiment: Antiproliferative activity against human A549 cells after 3 days by sulforhodamine B assay. The following applies: A549, 72 h. The experiment is classed as functional, cell-based.
The test system of another experiment is HCT-116. Nature of the experiment: Antiproliferative activity against human HCT116 cells after 3 days by sulforhodamine B assay. In kind it is functional, cell-based. Conditions: HCT-116, 72 h.
The nature of experiment [3]: Inhibition of porcine cerebral cortex Na+/K+ ATPase incubated at 37 degC for 30 mins using 3-O-methylfluorescein phosphate and […] by fluorometry. The following applies: for pIC50: read-out: IC50. The experiment is classed as tissue-based, Sus scrofa.

One may read the pIC50 as the negative decadic logarithm of the IC50, by convention in mol/L. As for `COc1cc([C@@H]2c3cc4c(cc3[C@@H](O[C@@H]3O[C@@H]5CO[C@@H](C)O[C@H]5[C@H](O)[C@H]3O)[C@H]3COC(=O)[C@H]23)OCO4)cc(OC)c1O` [ETOPOSIDE], the pIC50 with MDA-MB-231 was 4.96; in experiment [1] it was 6.30; in experiment [2], 5.96; in the experiment on K562, 5.51; in the experiment with A549, 6.10.
In the case of `CC(C)=C[C@H](C)C[C@H](C)/C=C/C(=O)NC1=C[C@](O)(CCCCC(=O)O)C=CC1=O`, the pIC50 with MDA-MB-231 is 4.57; in experiment [1], 4.57; with HCT-116 it was 4.26; in experiment [2], 4.25; in the experiment with K562, under 4.00; in the experiment on A549, 4.09. The IC50 entry in experiment [3] is “Not Active”.
Take `CC(C)=C[C@H](C)C[C@H](C)/C=C/C(=O)NC1=C[C@](O)(CCCCC(=O)O)C=C(Cl)C1=O`: the pIC50 with MDA-MB-231 was 5.05; in experiment [1] it was 6.02; in the experiment with HCT-116 it was 6.02; in experiment [2] it was 5.57; in the experiment with K562, 5.05; in the experiment with A549, 4.44. The pIC50 in experiment [3] is 4.21.
For `CC(C)=C[C@H](C)C[C@H](C)/C=C/C(=O)NC1=C[C@](O)(CCCCC(=O)O)[C@@H](O)CC1=O`, the pIC50 (with MDA-MB-231; in experiment [1]; in the experiment with HCT-116; in experiment [2]; in the experiment with K562; with A549) was under 4.00 in each case. Moreover, the pIC50 in experiment [3] is under 4.00.
`CC(C)=C[C@H](C)C[C@H](C)/C=C(\C)C(=O)NC1=C[C@](O)(CCCCC(=O)O)[C@@H](O)CC1=O`: the pIC50 with MDA-MB-231 was 4.04; in experiment [1], 4.82; in the experiment with HCT-116, 4.47; in experiment [2] it was 4.49; in the experiment on K562 it was 4.23; with A549, under 4.00. The pIC50 in experiment [3] was 4.52.
With `C[C@@H]1O[C@@H](O[C@H]2C[C@@H](O)[C@]3(CO)[C@H]4[C@H](O)C[C@]5(C)[C@@H](C6=CC(=O)OC6)CC[C@]5(O)[C@@H]4CC[C@]3(O)C2)[C@H](O)[C@H](O)[C@H]1O` [OUABAIN], the pIC50 in experiment [3] is 5.42.
